Values after ≈ are worked out from the molar mass of the structure shown. Active and inactive are the calls of the source. The calls are words filed in the database; no cut-off is given here.
Columns and labels:
Klebsiella pneumoniae [1] = assay: Antibacterial activity against Klebsiella pneumoniae BAA-1144 clinical isolates after 18 to 20 hrs in aerobic condition by CLSI-based broth microdilution assay; format: functional
Pseudomonas aeruginosa [2] = assay: microbe, parasite or virus in culture; settings: ATCC 9027
Description: Antibacterial activity against Pseudomonas aeruginosa ATCC 9027 clinical isolates after 18 to 20 hrs in aerobic condition by CLSI-based broth microdilution assay

Staphylococcus aureus [3] = assay: Antibacterial activity against Methicillin-resistant Staphylococcus aureus NRS123-USA400 clinical isolates after 18 to 20 hrs in aerobic condition by CLSI protocol based broth microdilution assay; format: functional
Clostridioides difficile = assay: Antibacterial activity against Clostridium difficile ATCC BAA 1870 incubated for 48 hrs in anaerobic condition by CLSI-based broth microdilution assay; format: functional; settings: ATCC BAA 1870, 48 h
Staphylococcus aureus [4] = assay: Bactericidal activity against methicillin-resistant Staphylococcus aureus NRS123-USA400 clinical isolates at 5 times MIC incubated over 24 hrs followed by replating on tryptic soy agar plate and further incubated for 18 to 20 hrs by time kill assay; format: functional, organism-based
Acinetobacter baumannii [5] = assay: microbe, parasite or virus in culture; settings: ATCC BAA 1747
Description: Antibacterial activity against Acinetobacter baumannii ATCC BAA 1747 after 18 to 20 hrs in aerobic condition by CLSI-based broth microdilution assay

Staphylococcus aureus [6] = assay: Antibacterial activity against Methicillin-resistant Staphylococcus aureus NRS385-USA500 clinical isolates after 18 to 20 hrs in aerobic condition by CLSI protocol based broth microdilution assay; format: functional
Acinetobacter baumannii [7] = assay: Antibacterial activity against carbapenem-resistant Acinetobacter baumannii ATCC BAA 1605 clinical isolates after 18 to 20 hrs in aerobic condition by CLSI-based broth microdilution assay; format: functional
Acinetobacter baumannii [8] = assay: Antibacterial activity against Acinetobacter baumannii NR 17786 clinical isolates after 18 to 20 hrs in aerobic condition by CLSI-based broth microdilution assay; format: functional
Escherichia coli [9] = assay: Antimicrobial activity against Escherichia coli JW55031 harboring deltatolC mutant after 18 to 20 hrs in aerobic condition by CLSI protocol based broth microdilution assay; format: functional
Staphylococcus aureus [10] = assay: Antibiofilm activity against methicillin-resistant Staphylococcus aureus NRS384-USA300 clinical isolates assessed as inhibition of biofilm formation at 0.5 times MIC incubated for 24 hrs by crystal violet staining based spectrophotometric method relative to control; format: functional
Salmonella enteritidis [11] = assay: Antibacterial activity against Salmonella enteritidis ATCC 14028 clinical isolates after 18 to 20 hrs in aerobic condition by CLSI-based broth microdilution assay; format: functional, Salmonella enterica subsp. enterica serovar Enteritidis; settings: Salmonella enterica
Staphylococcus aureus [12] = assay: Antibacterial activity against linezolid-resistant/Methicillin-resistant Staphylococcus aureus NRS119 clinical isolates after 18 to 20 hrs in aerobic condition by CLSI protocol based broth microdilution assay; format: functional
Staphylococcus aureus [13] = assay: Antibacterial activity against Methicillin-sensitive Staphylococcus aureus NRS107 clinical isolates after 18 to 20 hrs in aerobic condition by CLSI protocol based broth microdilution assay; format: functional
Salmonella enteritidis [14] = assay: Ratio of MBC to MIC for Salmonella enteritidis ATCC 14028 clinical isolates; format: functional, Salmonella enterica subsp. enterica serovar Enteritidis
Escherichia coli [15] = assay: Ratio of MBC to MIC for Escherichia coli BW25113 clinical isolates; format: functional
Escherichia coli [16] = assay: Antibacterial activity against Escherichia coli BW25113 clinical isolates after 18 to 20 hrs in aerobic condition by CLSI-based broth microdilution assay; format: functional
Enterococcus faecium = assay: Antibacterial activity against vancomycin-resistant Enterococcus faecium ATCC 700221 clinical isolates after 18 to 20 hrs in aerobic condition by CLSI-based broth microdilution assay; format: functional
Staphylococcus aureus [17] = assay: Antibacterial activity against vancomycin-resistant Staphylococcus aureus isolate 12 after 18 to 20 hrs in aerobic condition by CLSI-based broth microdilution assay; format: functional
Klebsiella pneumoniae [18] = assay: Antibacterial activity against carbapenem-resistant Klebsiella pneumoniae ATCC BAA-1705 clinical isolates after 18 to 20 hrs in aerobic condition by CLSI-based broth microdilution assay; format: functional
Acinetobacter baumannii [19] = assay: Ratio of MBC to MIC for Acinetobacter baumannii ATCC BAA 1141 clinical isolates; format: functional
Acinetobacter baumannii [20] = assay: Ratio of MBC to MIC for Acinetobacter baumannii ATCC BAA 1747 clinical isolates; format: functional
Salmonella enteritidis [21] = assay: Antibacterial activity against Salmonella enteritidis ATCC 13076 clinical isolates after 18 to 20 hrs in aerobic condition by CLSI-based broth microdilution assay; format: functional, Salmonella enterica subsp. enterica serovar Enteritidis; settings: Salmonella enterica
[22] = system: Staphylococcus epidermidis; assay: Ratio of MBC to MIC for Staphylococcus epidermidis NRS101 clinical isolates; format: functional
Enterococcus faecalis = assay: Ratio of MBC to MIC for vancomycin-resistant Enterococcus faecalis ATCC 51299 clinical isolates; format: functional
Escherichia coli [23] = assay: Antibacterial activity against Escherichia coli ATCC 25922 clinical isolates after 18 to 20 hrs in aerobic condition by CLSI-based broth microdilution assay; format: functional
Salmonella enterica = assay: Antibacterial activity against Salmonella enterica NR-170 clinical isolates after 18 to 20 hrs in aerobic condition by CLSI-based broth microdilution assay; format: functional
Klebsiella pneumoniae [24] = assay: Antibacterial activity against carbapenem-resistant Klebsiella pneumoniae ATCC BAA-2146 clinical isolates after 18 to 20 hrs in aerobic condition by CLSI-based broth microdilution assay; format: functional
Escherichia coli [25] = assay: microbe, parasite or virus in culture; settings: ATCC 1411
Description: Antibacterial activity against Escherichia coli ATCC 1411 clinical isolates after 18 to 20 hrs in aerobic condition by CLSI-based broth microdilution assay

Pseudomonas aeruginosa [26] = assay: Antibacterial activity against Pseudomonas aeruginosa ATCC 15442 clinical isolates after 18 to 20 hrs in aerobic condition by CLSI-based broth microdilution assay; format: functional
Streptococcus pneumoniae = assay: Ratio of MBC to MIC for […] Streptococcus pneumoniae ATCC 700677 clinical isolates; format: functional
Escherichia coli [27] = assay: Ratio of MBC to MIC for Escherichia coli ATCC 35150 clinical isolates; format: functional
Klebsiella pneumoniae [28] = assay: Antibacterial activity against Klebsiella pneumoniae BAA-1706 clinical isolates after 18 to 20 hrs in aerobic condition by CLSI-based broth microdilution assay; format: functional
Pseudomonas aeruginosa [29] = assay: Ratio of MBC to MIC for Pseudomonas aeruginosa ATCC 25619 clinical isolates; format: functional
Staphylococcus aureus [30] = assay: Antibacterial activity against vancomycin-resistant Staphylococcus aureus isolate 10 after 18 to 20 hrs in aerobic condition by CLSI-based broth microdilution assay; format: functional

Compound | MIC (Klebsiella pneumoniae [1]) | MIC (Pseudomonas aeruginosa [2]) | MIC (Staphylococcus aureus [3]) | MIC (Clostridioides difficile) | Activity (Staphylococcus aureus [4]) | MIC (Acinetobacter baumannii [5]) | MIC (Staphylococcus aureus [6]) | MIC (Acinetobacter baumannii [7]) | MIC (Acinetobacter baumannii [8]) | MIC (Escherichia coli [9]) | MIC (Salmonella enteritidis [11]) | MIC (Staphylococcus aureus [12]) | MIC (Staphylococcus aureus [13]) | Ratio (Salmonella enteritidis [14]) | Ratio (Escherichia coli [15]) | MIC (Escherichia coli [16]) | MIC (Enterococcus faecium) | MIC (Staphylococcus aureus [17]) | MIC (Klebsiella pneumoniae [18]) | Ratio (Acinetobacter baumannii [19]) | also measured
C/C(=N\NC(=N)N)c1cnn(-c2ccc(C#CC3CCCCC3)cc2)c1C | 16 µg/mL (≈ 44.1 µM) | 16 µg/mL (≈ 44.1 µM) | 2 µg/mL (≈ 5.52 µM) | 4 µg/mL (≈ 11 µM) | Active | 4 µg/mL (≈ 11 µM) | 2 µg/mL (≈ 5.52 µM) | 4 µg/mL (≈ 11 µM) | 8 µg/mL (≈ 22.1 µM) | 2 µg/mL (≈ 5.52 µM) | 32 µg/mL (≈ 88.3 µM) | 2 µg/mL (≈ 5.52 µM) | 2 µg/mL (≈ 5.52 µM) | >=1 | >=1 | 4 µg/mL (≈ 11 µM) | 1 µg/mL (≈ 2.76 µM) | 2 µg/mL (≈ 5.52 µM) | 8 µg/mL (≈ 22.1 µM) | >=1 | inhibition (INH) (Staphylococcus aureus [10]): 22%; Ratio (Acinetobacter baumannii [20]): >=1; MIC (Salmonella enteritidis [21]): 16 µg/mL (≈ 44.1 µM); Ratio [22]: <3; Ratio (Enterococcus faecalis): <3; MIC (Escherichia coli [23]): 4 µg/mL (≈ 11 µM); MIC (Salmonella enterica): 8 µg/mL (≈ 22.1 µM); MIC (Klebsiella pneumoniae [24]): 8 µg/mL (≈ 22.1 µM); MIC (Escherichia coli [25]): 8 µg/mL (≈ 22.1 µM); MIC (Pseudomonas aeruginosa [26]): 32 µg/mL (≈ 88.3 µM); Ratio (Streptococcus pneumoniae): <3; Ratio (Escherichia coli [27]): >=1; MIC (Klebsiella pneumoniae [28]): 8 µg/mL (≈ 22.1 µM); Ratio (Pseudomonas aeruginosa [29]): >=1; MIC (Staphylococcus aureus [30]): 2 µg/mL (≈ 5.52 µM)
C/C(=N\NC(=N)N)c1cnn(-c2ccc(C#CC3(O)CCCCC3)cc2)c1C | 16 µg/mL (≈ 42.3 µM) | 32 µg/mL (≈ 84.5 µM) | 2 µg/mL (≈ 5.28 µM) | 4 µg/mL (≈ 10.6 µM) | Active | 16 µg/mL (≈ 42.3 µM) | 2 µg/mL (≈ 5.28 µM) | 32 µg/mL (≈ 84.5 µM) | 16 µg/mL (≈ 42.3 µM) | 4 µg/mL (≈ 10.6 µM) | 32 µg/mL (≈ 84.5 µM) | 2 µg/mL (≈ 5.28 µM) | 4 µg/mL (≈ 10.6 µM) | >=1 | >=1 | 8 µg/mL (≈ 21.1 µM) | 2 µg/mL (≈ 5.28 µM) | 2 µg/mL (≈ 5.28 µM) | 64 µg/mL (≈ 169 µM) | >=1 | Ratio (Acinetobacter baumannii [20]): >=1; MIC (Salmonella enteritidis [21]): 32 µg/mL (≈ 84.5 µM); Ratio [22]: <3; Ratio (Enterococcus faecalis): <3; MIC (Escherichia coli [23]): 8 µg/mL (≈ 21.1 µM); MIC (Salmonella enterica): 16 µg/mL (≈ 42.3 µM); MIC (Klebsiella pneumoniae [24]): > 64 µg/mL; MIC (Escherichia coli [25]): 32 µg/mL (≈ 84.5 µM); MIC (Pseudomonas aeruginosa [26]): 64 µg/mL (≈ 169 µM); Ratio (Streptococcus pneumoniae): <3; Ratio (Escherichia coli [27]): >=1; MIC (Klebsiella pneumoniae [28]): 8 µg/mL (≈ 21.1 µM); Ratio (Pseudomonas aeruginosa [29]): >=1; MIC (Staphylococcus aureus [30]): 2 µg/mL (≈ 5.28 µM)

— ChEMBL document CHEMBL4334464, “From Phenylthiazoles to Phenylpyrazoles: Broadening the Antibacterial Spectrum toward Carbapenem-Resistant Bacteria” (J Med Chem, 2019)
